Measured values reported in patent US8580965B2, “Substituted sulfonamide compounds” (Gruenenthal GmbH, priority 2006, dated 2013).

target: T1, human B1R receptor (bradykinin 1 receptor) (Homo sapiens, UniProt P46663); assay: FLIPR Ca2+ assay (Fluo-4) on CHO K1 cells stably transfected with the human B1R gene; % activation and % inhibition at 10 μM; assay type: cell-based; conditions: CHO-K1, test substance 10 μM; CHO K1 hB1R cells; Ca2+ inflow after 0.5 nM Lys-Des-Arg9-bradykinin; read-out: B1R antagonism, human [10 μM] % inhibition
T1 construct: host or cells: CHO K1 cells (hB1R cells)
T1 sequence (P46663 1-353): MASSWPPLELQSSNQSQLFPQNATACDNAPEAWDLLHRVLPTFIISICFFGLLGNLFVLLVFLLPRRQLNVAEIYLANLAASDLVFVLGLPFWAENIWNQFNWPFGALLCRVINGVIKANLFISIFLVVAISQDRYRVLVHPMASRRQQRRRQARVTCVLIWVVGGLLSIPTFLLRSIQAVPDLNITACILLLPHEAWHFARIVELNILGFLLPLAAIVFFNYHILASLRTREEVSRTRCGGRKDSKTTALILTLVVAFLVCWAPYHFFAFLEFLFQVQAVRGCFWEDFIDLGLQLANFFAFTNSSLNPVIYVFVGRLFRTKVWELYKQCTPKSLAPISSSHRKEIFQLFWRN
Protocol: The agonistic or antagonistic action of substances can be quantified on the bradykinin receptor 1 (B1R) of the species human and rat with ectopically expressing cell lines (CHO K1 cells) and with the aid of a Ca^2+-sensitive dye (Fluo-4) using a fluorescent imaging plate reader (FLIPR). The indication in % activation is based on the Ca^2+ signal after addition of Lys-Des-Arg^9-bradykinin (0.5 nM) or Des-Arg^9-bradykinin (100 nM). Antagonists result in a suppression of the Ca^2+ influx following administration of the agonist. The % inhibition in comparison with the maximum achievable inhibition is indicated.
Functional Investigation on the Bradykinin 1 Receptor (B1R)
The agonistic or antagonistic action of substances can be determined on the bradykinin 1 receptor (B1R) of the human and rat species with the following assay. According to this assay, the Ca^2+ inflow through the channel is quantified with the aid of a Ca^2+-sensitive dyes (Fluo-4 type, Molecular Probes Europe BV, Leiden, The Netherlands) in a fluorescent imaging plate reader (FLIPR, Molecular Devices, Sunnyvale, USA).
Chinese Hamster Ovary cells (CHO K1 cells) which are stably transfected with the human B1R gene (hB1R cells, Euroscreen s.a., Gosselies, Belgium) or the B1R gene of the rat (rB1R cells, Axxam, Milan, Italy) are used. For functional investigations, these cells are plated-out on black 96-well plates with a clear base (BD Biosciences, Heidelberg, Germany) in a density of 20,000-25,000 cells/well. Overnight, the cells are incubated at 37° C. and 5% CO2 in culture medium (hB1R cells: Nutrient Mixture Ham's F12, Gibco Invitrogen GmbH, Karlsruhe, Germany; rB1R cells: D-MEM/F12, Gibco Invitrogen, Karlsruhe, Germany) with 10 vol. % FBS (foetal bovine serum, Gibco Invitrogen GmbH, Karlsruhe, Germany). On the following day, the cells are loaded with 2.13 μM Fluo-4 (Molecular Probes Europe BV, Leiden, The Netherlands) in HBSS buffer (Hank's buffered saline solution, Gibco Invitrogen GmbH, Karlsruhe, Germany) […] (Sigma-Aldrich, Taufkirchen, Germany) and 10 mM HEPES (Sigma-Aldrich, Taufkirchen, Germany) for 60 min at 37° C. The plates are subsequently washed 2× with HBSS buffer, and HBSS buffer which additionally contains 0.1% BSA (bovine serum albumin; Sigma-Aldrich, Taufkirchen, Germany), 5.6 mM glucose and 0.05% gelatine (Merck KGaA, Darmstadt, Germany) is added. After a further incubation of 20 minutes at room temperature, the plates are inserted into the FLIPR for Ca^2+ measurement. The Ca^2+-dependent fluorescence is measured here before and after addition of substances (λex=488 nm, λem=540 nm). The quantification is effected by measurement of the highest fluorescence intensity (FC, fluorescence counts) over time.
The FLIPR protocol comprises 2 additions of substance. Test substances (10 μM) are first pipetted on to the cells and the Ca^2+ inflow is compared with the control (hB1R: Lys-Des-Arg^9-bradykinin 0.5 nM; rB1R: Des-Arg^9-bradykinin 100 nM). The value in % activation based on the Ca^2+ signal after addition of Lys-Des-Arg^9-bradykinin (0.5 nM) or Des-Arg^9-bradykinin (100 nM) is obtained therefrom. After incubation for 10 minutes, 0.5 nM Lys-Des-Arg^9-bradykinin (hB1R) or 100 nM Des-Arg^9-bradykinin (rB1R) are applied and the inflow of Ca^2+ is likewise determined. Antagonists lead to a suppression of the Ca^2+ inflow. % inhibition compared with the maximum inhibition which can be achieved is calculated. The compounds show a good activity on the human and on the rat receptor. The following data were determined by way of example: […]

Structure (SMILES)	inhibition at 10 µM
COc1cc(C)c(S(=O)(=O)N2CCCC(OCC(=O)N3CCC(O)(Cc4ccccc4)CC3)C2)c(C)c1C (stereo not shown) [Example 11, 1-(4-benzyl-4-hydroxy-piperidin-1-yl)-2-[1-(4-methoxy-2,3,6-trimethyl-phenylsulfonyl)-piperidin-3-yloxy]-ethanone]	70.9%
O=C(COCC1CCCCN1S(=O)(=O)c1ccc(Cl)c(Cl)c1)N1CCC(O)(c2cccnc2)CC1 (stereo not shown) [Example 12, 2-[1-(3,4-dichloro-phenylsulfonyl)-piperidin-2-ylmethoxy]-1-(4′-hydroxy-3′,4′,5′,6′-tetrahydro-2′H-[3,4′]bipyridinyl-1′-yl)-ethanone]	55.1%
COc1cc(C)c(S(=O)(=O)N(CCOCC(=O)N2CCC(O)(Cc3ccccc3)CC2)Cc2ccccc2)c(C)c1C [Example 13, N-benzyl-N-{2-[2-(4-benzyl-4-hydroxy-piperidin-1-yl)-2-oxo-ethoxy]-ethyl}-4-methoxy-2,3,6-trimethyl-phenylsulfonamide]	50.7%
COc1cc(C)c(S(=O)(=O)N2CCC(CCOCC(=O)N3CCC(O)(Cc4ccccc4)CC3)CC2)c(C)c1C [Example 14, 1-(4-benzyl-4-hydroxy-piperidin-1-yl)-2-{2-[1-(4-methoxy-2,3,6-trimethyl-phenylsulfonyl)-piperidin-4-yl]-ethoxy}-ethanone]	43.2%
O=C(COC1CCN(S(=O)(=O)c2ccc(F)cc2)C1)N1CCC(O)(Cc2ccccc2)CC1 (stereo not shown) [Example 15, 1-(4-benzyl-4-hydroxy-piperidin-1-yl)-2-[1-(4-fluoro-phenylsulfonyl)-pyrrolidin-3-yloxy]-ethanone]	40.2%
COc1ccc(S(=O)(=O)N(C)CCOCC(=O)N2CCC(O)(Cc3ccccc3)CC2)cc1OC [Example 16, N-{2-[2-(4-benzyl-4-hydroxy-piperidin-1-yl)-2-oxo-ethoxy]-ethyl}-3,4-dimethoxy-N-methyl-phenylsulfonamide]	31.2%
COc1cc(C)c(S(=O)(=O)N2CCN(CCOCC(=O)N3CCC(O)(Cc4ccccc4)CC3)CC2)c(C)c1C [Example 18, 1-(4-benzyl-4-hydroxy-piperidin-1-yl)-2-{2-[4-(4-methoxy-2,3,6-trimethyl-phenylsulfonyl)-piperazin-1-yl]-ethoxy}-ethanone]	23.5%
O=C(COCC1CCCN1S(=O)(=O)c1ccc(Cl)c(Cl)c1)N1CCC(O)(c2cccnc2)CC1 (stereo not shown) [Example 19, 2-[1-(3,4-dichloro-phenylsulfonyl)-pyrrolidin-2-ylmethoxy]-1-(4′-hydroxy-3′,4′,5′,6′-tetrahydro-2′H-[3,4′]bipyridinyl-1′-yl)-ethanone]	23.2%
O=C(COC1CCN(S(=O)(=O)c2ccccc2)C1)N1CCC(O)(Cc2ccccc2)CC1 (stereo not shown) [Example 22, 2-(1-phenylsulfonyl-pyrrolidin-3-yloxy)-1-(4-benzyl-4-hydroxy-piperidin-1-yl)-ethanone]	20.2%
O=C(COCC1CCCCN1S(=O)(=O)c1ccc(Cl)c(Cl)c1)N1CCC(O)(c2ccccn2)CC1 (stereo not shown) [Example 25, 2-[1-(3,4-dichloro-phenylsulfonyl)-piperidin-2-ylmethoxy]-1-(4′-hydroxy-3′,4′,5′,6′-tetrahydro-2′H-[2,4′]bipyridinyl-1′-yl)-ethanone]	10%
O=C(COC1CCCN(S(=O)(=O)c2ccccc2)C1)N1CCC(O)(Cc2ccccc2)CC1 (stereo not shown) [Example 27, 2-(1-phenylsulfonyl-piperidin-3-yloxy)-1-(4-benzyl-4-hydroxy-piperidin-1-yl)-ethanone]	9.32%

Continued, values first:

inhibition at 10 µM	Structure (SMILES)
8.5%	COc1ccc(S(=O)(=O)N(C)CCOCC(=O)N2CCC(O)(Cc3ccccc3)CC2)cc1 [Example 28, N-{2-[2-(4-benzyl-4-hydroxy-piperidin-1-yl)-2-oxo-ethoxy]-ethyl}-4-methoxy-N-methyl-phenylsulfonamide]
7.66%	COc1ccc(S(=O)(=O)N2CCCCC2CCOCC(=O)N2CCC(O)(Cc3ccccc3)CC2)cc1 (stereo not shown) [Example 29, 1-(4-benzyl-4-hydroxy-piperidin-1-yl)-2-{2-[1-(4-methoxy-phenylsulfonyl)-piperidin-2-yl]-ethoxy}-ethanone]
6.81%	O=C(COC1CCN(S(=O)(=O)c2ccc(Cl)cc2)C1)N1CCC(O)(Cc2ccccc2)CC1 (stereo not shown) [Example 31, 1-(4-benzyl-4-hydroxy-piperidin-1-yl)-2-[1-(4-chloro-phenylsulfonyl)-pyrrolidin-3-yloxy]-ethanone]
6.63%	O=C(COCCN1CCN(S(=O)(=O)c2ccccc2)CC1)N1CCC(O)(Cc2ccccc2)CC1 [Example 32, 2-[2-(4-phenylsulfonyl-piperazin-1-yl)-ethoxy]-1-(4-benzyl-4-hydroxy-piperidin-1-yl)-ethanone]
5.08%	COc1ccc(S(=O)(=O)N2CCCCC2COCC(=O)N2CCC(O)(Cc3ccccc3)CC2)cc1 (stereo not shown) [Example 35, 1-(4-benzyl-4-hydroxy-piperidin-1-yl)-2-[1-(4-methoxy-phenylsulfonyl)-piperidin-2-ylmethoxy]-ethanone]
3.64%	O=C(COCC1CCCN1S(=O)(=O)c1ccc(Cl)c(Cl)c1)N1CCC(O)(c2ccccn2)CC1 (stereo not shown) [Example 36, 2-[1-(3,4-dichloro-phenylsulfonyl)-pyrrolidin-2-ylmethoxy]-1-(4′-hydroxy-3′,4′,5′,6′-tetrahydro-2′H-[2,4′]bipyridinyl-1′-yl)-ethanone]
3.4%	O=C(COC1CCN(S(=O)(=O)c2ccccc2)CC1)N1CCC(O)(Cc2ccccc2)CC1 [Example 37, 2-(1-phenylsulfonyl-piperidin-4-yloxy)-1-(4-benzyl-4-hydroxy-piperidin-1-yl)-ethanone]
3.28%	CN(CCOCC(=O)N1CCC(O)(Cc2ccccc2)CC1)S(=O)(=O)c1cccc(C(F)(F)F)c1 [Example 38, N-{2-[2-(4-benzyl-4-hydroxy-piperidin-1-yl)-2-oxo-ethoxy]-ethyl}-N-methyl-3-trifluoromethyl-phenylsulfonamide]
2.99%	CN(CCOCC(=O)N1CCC(O)(Cc2ccccc2)CC1)S(=O)(=O)c1ccccc1 [Example 39, N-{2-[2-(4-benzyl-4-hydroxy-piperidin-1-yl)-2-oxo-ethoxy]-ethyl}-N-methyl-phenylsulfonamide]
-2.48%	COc1cc(C)c(S(=O)(=O)N2CCC(CCOCC(=O)N3CCC(O)(c4ccccn4)CC3)CC2)c(C)c1C [Example 45, 1-(4′-hydroxy-3′,4′,5′,6′-tetrahydro-2′H-[2,4′]bipyridinyl-1′-yl)-2-{2-[1-(4-methoxy-2,3,6-trimethyl-phenylsulfonyl)-piperidin-4-yl]-ethoxy}-ethanone]
-3.51%	O=C(COC1CCN(S(=O)(=O)c2ccccc2)CC1)N1CCC(O)(c2cccnc2)CC1 [Example 46, 2-(1-phenylsulfonyl-piperidin-4-yloxy)-1-(4′-hydroxy-3′,4′,5′,6′-tetrahydro-2′H-[3,4′]bipyridinyl-1′-yl)-ethanone]
